PMC10632405, “A novel in silico scaffold-hopping method for drug repositioning in rare and intractable diseases” (Scientific Reports, 2023)

Biological target: PAK5 (Homo sapiens, UniProt Q9P286)
Details: read-out: % inhibition at 50 nM

PAK5, sequence (Q9P286 whole entry): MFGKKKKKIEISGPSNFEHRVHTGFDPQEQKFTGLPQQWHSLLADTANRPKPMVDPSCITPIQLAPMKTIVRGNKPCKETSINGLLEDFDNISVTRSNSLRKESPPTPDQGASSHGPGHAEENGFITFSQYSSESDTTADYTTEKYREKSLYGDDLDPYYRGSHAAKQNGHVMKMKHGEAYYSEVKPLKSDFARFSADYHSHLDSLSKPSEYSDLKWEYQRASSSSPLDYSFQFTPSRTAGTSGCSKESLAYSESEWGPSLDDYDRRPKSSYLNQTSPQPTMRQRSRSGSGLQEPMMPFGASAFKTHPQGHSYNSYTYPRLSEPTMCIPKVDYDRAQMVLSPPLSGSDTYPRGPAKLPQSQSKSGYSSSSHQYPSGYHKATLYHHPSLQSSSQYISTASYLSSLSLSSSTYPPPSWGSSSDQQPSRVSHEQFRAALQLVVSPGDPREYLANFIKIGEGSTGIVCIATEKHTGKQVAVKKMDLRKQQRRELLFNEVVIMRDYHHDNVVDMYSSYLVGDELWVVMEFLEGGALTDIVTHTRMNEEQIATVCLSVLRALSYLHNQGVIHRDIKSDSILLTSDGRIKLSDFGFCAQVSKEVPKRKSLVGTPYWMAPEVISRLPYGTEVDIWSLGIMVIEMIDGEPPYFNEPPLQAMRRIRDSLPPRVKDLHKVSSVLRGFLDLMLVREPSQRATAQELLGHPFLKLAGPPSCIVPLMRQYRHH

Compound: NC(=O)c1cnc(N[C@@H]2CCCC[C@@H]2N)nc1Nc1cccc(-n2nccn2)c1 [BIIB-057]
- inhibition at 0.05 µM: > 50%
